Test results reported in patent US8242087B2, “Phosphate modified nucleosides useful as substrates for polymerases and as antiviral agents” (priority 2007, dated 2012).

What was measured:
[1] = biological target: T1, Therminator DNA polymerase (Thermococcus sp., UniProt Q56366, A485L/D141A/E143A); assay: Single nucleotide incorporation by Therminator DNA polymerase; assay type: biochemical, (9° N-7) Thermococcus sp.
T1 construct: purchased Westburg (NEB)
Description: (§1) In the case of Therminator DNA polymerase, the enzyme was obtained from Westburg (NEB) (2 U/μL) and the reactions were carried out in a 10× Thermopol reaction buffer containing 20 mM TRIS.HCl, 10 mM KCl, 2 mM MgSO4, 0.1% Triton X-100, pH 8.8. The final concentration of the Therminator DNA pol in the reaction mixture was 8.33×10^−4 U/μL. The polymerase reaction involving Therminator DNA polymerase or any other thermostable polymerase (Vent (exo^−), Taq DNA polymerase) was carried out in a similar way as the HIV RT reaction with some modifications. The dNTP solutions and the primer/template/DNA polymerase mixture solutions were topped with mineral oil (30-60 μL) and pre-incubated at 70° C. for 2 minutes. The polymerase reactions were performed at 70° C. as well.

[2] = biological target: Vent (exo−) DNA polymerase (Thermococcus litoralis, UniProt P30317, D141A/DEL1082-1471/DEL495-1032/E143A); assay: Single nucleotide incorporation by Vent (exo−) DNA polymerase; assay type: biochemical
Description: Reaction conditions: Primer (P1) was 5′-labeled with ^33P followed by annealing to a template T1; 125 nM primer/template (P1/T1), [Taq]=0.005 U/μL, [Vent]=0.005 U/μL, [KF]=0.05 U/μL; time intervals: 5, 15, 30, 60, 90 and 120 minutes.
as §1

[3] = biological target: T1, Therminator DNA polymerase; assay: Primer extension by Therminator DNA polymerase (P1/T3, P1/T5); assay type: biochemical, (9° N-7) Thermococcus sp.
Description: Primer extension study with HIV RT and Therminator DNA polymerase was performed in a fashion similar to the single nucleotide incorporation experiments. Two sets of primer/template complexes were used: P1/T3 and P1/T5.
as §1

[4] = biological target: T2, HIV reverse transcriptase (Human immunodeficiency virus type 1 group M subtype B, UniProt P03366); assay: Gel-based single-nucleotide-incorporation and control assays with HIV RT (Example 4); assay type: biochemical, HIV-1
T2 construct: performed for the enzyme HIV reverse transcriptase (GE Healthcare, 30 U/4 stock solution); purchased GE Healthcare
Description: End-labeled primers were annealed to their template by combining primer and templates in a molar ratio of 1:2 and heating the mixture to 70° C. for 10 minutes, followed by slow cooling to room temperature over a period of 2.5 hours. For the incorporation of L-Asp-dGMP (9), L-Asp-dTMP (10), L-Asp-dCMP (11), and N-Me-Asp-dAMP (12) (see FIG. 13), the primer P1 was annealed to templates T1, T2, T4 or A and P2 was annealed to T4. A series of 20 μL reactions was performed for the enzyme HIV reverse transcriptase (GE Healthcare, 30 U/4 stock solution). The final mixture contained 125 nM primer-template complex, RT buffer (250 mM TrisHCl, 250 mM KCl, 50 mM MgCl2, 2.5 mM spermidine, 50 mM DTT, pH 8.3), 0.03 U/μL HIV RT and different amino acid phosphoramidates building blocks concentrations. In the control reaction with the natural nucleotide, 10 μM or 50 μM dGTP, dTTP, dATP or dCTP were used. The mixture was incubated at 37° C. […] and aliquots were quenched after 5, 10, 20, 30, 60 and 120 minutes respectively.
All polymerase reactions (3 μL) were quenched by the addition of 10 μL of loading buffer (90% formamide, 0.05% bromophenol blue, 0.05% xylene cyanol and 50 mM EDTA). Samples were heated at 70° C. for 5 minutes prior to analysis by electrophoresis for 2-3 hours at 2000 V on a 0.4 mm 20% denaturing gel in the presence of a 100 mM Tris-borate, 2.5 mM EDTA buffer, pH 8.3. Products were visualized by phosphor imaging. The amount of radioactivity in the bands corresponding to the products of enzymatic reactions was determined by using the Optiquant image analysis software (Perkin Elmer).

T1 sequence (Q56366 whole entry D141A/E143A/A485L): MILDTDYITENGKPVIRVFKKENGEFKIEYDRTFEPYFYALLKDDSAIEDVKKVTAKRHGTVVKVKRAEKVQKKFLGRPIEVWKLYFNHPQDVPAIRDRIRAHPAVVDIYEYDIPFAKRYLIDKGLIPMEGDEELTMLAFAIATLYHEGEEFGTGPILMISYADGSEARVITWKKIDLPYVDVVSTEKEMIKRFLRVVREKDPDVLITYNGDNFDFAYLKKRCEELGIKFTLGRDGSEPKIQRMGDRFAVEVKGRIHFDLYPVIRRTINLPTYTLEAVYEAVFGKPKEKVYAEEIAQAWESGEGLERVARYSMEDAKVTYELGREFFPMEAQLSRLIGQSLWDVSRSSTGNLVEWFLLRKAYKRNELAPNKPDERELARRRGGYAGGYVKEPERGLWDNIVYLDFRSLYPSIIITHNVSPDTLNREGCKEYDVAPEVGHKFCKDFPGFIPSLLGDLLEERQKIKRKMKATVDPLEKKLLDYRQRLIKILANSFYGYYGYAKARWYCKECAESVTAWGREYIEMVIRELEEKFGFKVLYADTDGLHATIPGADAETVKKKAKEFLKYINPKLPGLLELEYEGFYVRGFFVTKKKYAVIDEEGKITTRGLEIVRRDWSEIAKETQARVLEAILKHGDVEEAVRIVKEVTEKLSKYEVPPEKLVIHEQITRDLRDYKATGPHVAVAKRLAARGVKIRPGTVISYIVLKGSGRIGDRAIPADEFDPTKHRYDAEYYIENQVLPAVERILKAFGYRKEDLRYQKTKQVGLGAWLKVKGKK
Vent (exo−) DNA polymerase, sequence (P30317 other isoform, or with tags, fused parts or gaps D141A/E143A/DEL495-1032/DEL1082-1471): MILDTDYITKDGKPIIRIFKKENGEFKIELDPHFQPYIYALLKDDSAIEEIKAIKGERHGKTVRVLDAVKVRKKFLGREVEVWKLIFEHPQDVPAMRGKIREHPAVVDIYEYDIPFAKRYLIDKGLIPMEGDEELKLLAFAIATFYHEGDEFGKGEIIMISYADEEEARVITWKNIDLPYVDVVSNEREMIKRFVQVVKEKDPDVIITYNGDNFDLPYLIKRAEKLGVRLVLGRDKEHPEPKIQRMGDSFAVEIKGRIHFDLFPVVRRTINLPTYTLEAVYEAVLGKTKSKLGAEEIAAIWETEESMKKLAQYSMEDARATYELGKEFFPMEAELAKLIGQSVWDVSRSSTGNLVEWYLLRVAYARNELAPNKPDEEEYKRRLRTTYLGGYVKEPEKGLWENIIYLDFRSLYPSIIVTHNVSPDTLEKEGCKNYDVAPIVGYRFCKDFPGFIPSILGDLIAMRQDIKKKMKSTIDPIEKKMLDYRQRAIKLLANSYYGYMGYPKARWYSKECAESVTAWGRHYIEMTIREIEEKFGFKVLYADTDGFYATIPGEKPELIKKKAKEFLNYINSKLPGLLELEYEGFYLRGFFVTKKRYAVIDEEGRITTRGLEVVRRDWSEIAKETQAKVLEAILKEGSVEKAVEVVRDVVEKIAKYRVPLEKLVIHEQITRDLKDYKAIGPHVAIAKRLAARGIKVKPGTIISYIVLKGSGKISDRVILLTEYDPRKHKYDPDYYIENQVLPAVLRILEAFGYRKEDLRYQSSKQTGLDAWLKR

For “2′-deoxy-adenosine-5′-aspartyl-phosphoramidate [Compound 1]”, the primer extension ([1]; 60 min, 500 μM nucleoside concentration) was 25.2%, the “incorporation as Therminator DNA polymerase substrate” value ([1]; single nucleotide incorporation, P1/T1) was “act effectively as alternative substrates” and the “insertion into a growing primer strand” value [2] was “failed to insert”. The “primer extension” value ([3]; T3 template) was “successfully incorporated”, the “number of adenine residues incorporated” value ([3]; T5 template, overhang of seven thymidine residues) was “up to five adenine residues” and the “base-pairing selectivity of incorporation” value ([4]; P1/T1) was “inserted selectively against thymine”. The “incorporation with blunt ended duplex” value ([4]; primer P1, template A) was “none of these compounds incorporated at all”.
